Test results reported in patent publication US4439434A, “Cephalosporin derivative and pharmaceutical composition containing the derivative” (Kureha Kagaku Kogyo Kabushiki Kaisha, priority 1981, dated 1984).

How the values were obtained:
[1] = tested on: Staphylococcus aureus IAM 1011; experiment: Antibacterial activity (MIC, agar plate) against Staph. aureus; assay type: cell-based; details: Staphylococcus aureus IAM 1011, Mueller-Hinton agar, 37° C., 18 to 24 hours; unit assumed
Protocol: (§1) Antibacterial activity of each of the cephalosporin derivatives of the invention prepared in Examples 1 to 10 was examined against the following two bacteria according to the standard method of Japan Society of Chemitherapy: Escherichia coli IFO 12734 and Staphylococcus aureus IAM 1011.
(§2) Each bacterial strain was inoculated into the Mueller-Hinton's culture medium and cultured at 37° C. for 18 to 48 hours. The cultured medium was diluted so as to contain 1×10^6 cells of the bacteria per one ml, and the obtained medium was used as the bacterial specimen.
(§3) Agar plates were prepared by adding one part by weight of each solution of the cephalosporin derivative of the invention at a predetermined concentration to nine parts by weight of Mueller-Hinton's culture medium.
(§4) A loopful amount of the bacterial specimen prepared above was smeared to make a streak of about 2 cm on each agar plate prepared above and cultured at 37° C. for 18 to 24 hours.
(§5) The minimum concentration for completely inhibiting proliferation of the bacteria (referred to as MIC) was determined.

[2] = tested on: Staphylococcus aureus IAM 1011; experiment: Activation by rat liver homogenate (S-9 mix), proliferation-inhibiting circle, penicillin cup method; assay type: cell-based; details: incubated with rat liver S-9 mix, 37° C. 20 min; circle diameter relative to the starting compound
Protocol: As an activating enzyme of metabolism, a rat liver homogenate (S-9, manufactured by Oriental Yeast Company, Japan) was used in the following composition per 1 ml (hereinafter referred to as S-9 mix). 0.1 ml of the solution of each of the cephalosporin derivatives of the invention prepared in Examples 1 to 10 at a concentration of 100 μg/ml was mixed with 0.9 ml of S-9 mix or 0.9 ml of 0.1 M phosphoric buffer solution (as a control) and the obtained mixture was incubated at 37° C. for 20 min. with shaking. Staphylococcus aureus IAM 1011 was inoculated into a Mueller-Hinton's culture medium and cultured at 37° C. for 18 hours. The culture medium was adjusted to a cell concentration of 1×10^8 per 1 ml and mixed with 50 times by volume of Mueller-Hinton's agar culture medium to obtain an agar plate. A penicillin cup of 8 mm in diameter was placed on the agar plate prepared above, and into the cup 0.1 ml of the mixture containing the cephalosporin derivative prepared above was introduced and allowed to stand at 4° C. for 2 hours, and then cultured at 37° C. for 18 hours to measure the diameter of a circle in which the proliferation of bacteria was inhibited (proliferation-inhibiting circle). In Table 4, the proliferation-inhibiting index is shown in the ratio (%) of the diameter of the proliferation-inhibiting circle obtained by using each of the cephalosporin derivatives of the invention to that obtained by using each of the starting compound in preparing each of the cephalosporin derivatives of the invention.

[3] = tested on: Pseudomonas aeruginosa; experiment: Effect on the intestinal bacterial colonies: Pseudomonas aeruginosa in feces; assay type: in vivo; details: mice, oral 500 mg/kg/day for two consecutive days, feces one day after administration
Protocol: (§6) Each of the cephalosporin derivatives of the invention prepared in Examples 1 to 10 was orally administered to mice (one group consisting of five female ICR mice of 6-week-old) for two consecutive days at a dose of 500 mg/kg/day.
(§7) Before and one day after the administration, feces of each mouse were collected and diluted with an anaerobic diluent (phosphoric buffer solution) of 100 times volume and the diluted feces were ground. 0.1 ml of the diluted and ground feces was smeared on each culture medium shown in Table 1 and cultured aerobically or anaerobically (according to the anaerobic glove box method) under each condition shown in Table 1 and the number of each bacterium shown in Table 1 was counted.
NAC agar aerobic, 37° C.,

[4] = tested on: Lactobacillus bifidus; experiment: Effect on the intestinal bacterial colonies: Lactobacillus bifidus in feces; assay type: in vivo; details: mice, oral 500 mg/kg/day for two consecutive days, feces one day after administration
Protocol: as §6, §7
BS agar anaerobic, 37° C.,

[5] = tested on: Lactobacillus acidophilus; experiment: Effect on the intestinal bacterial colonies: Lactobacillus acidophilus in feces; assay type: in vivo; details: mice, oral 500 mg/kg/day for two consecutive days, feces one day after administration
Protocol: as §6, §7
Lactobacillus acidophilus
LBS agar anaerobic, 37° C.,

[6] = tested on: Escherichia coli; experiment: Effect on the intestinal bacterial colonies: Escherichia coli in feces; assay type: in vivo; details: mice, oral 500 mg/kg/day for two consecutive days, feces one day after administration
Protocol: as §6, §7
DHL agar aerobic, 37° C.,

[7] = tested on: Streptococcus spp.; experiment: Effect on the intestinal bacterial colonies: Streptococcus spp. in feces; assay type: in vivo; details: mice, oral 500 mg/kg/day for two consecutive days, feces one day after administration
Protocol: as §6, §7
TATAC agar aerobic, 37° C.,

[8] = tested on: Bacteroides; experiment: Effect on the intestinal bacterial colonies: Bacteroides in feces; assay type: in vivo; details: mice, oral 500 mg/kg/day for two consecutive days, feces one day after administration
Protocol: as §6, §7
Bacteroides NBGT agar anaerobic, 37° C.,

[9] = tested on: Escherichia coli IFO 12734; experiment: Antibacterial activity (MIC, agar plate) against E. coli; assay type: cell-based; details: Escherichia coli IFO 12734, Mueller-Hinton agar, 37° C., 18 to 24 hours; unit assumed
Protocol: as §1, §2, §3, §4, §5

[10] = tested on: ICR-JCL mouse; details: conventional cephalosporin antibiotic, route not stated; cited from earlier work

| SMILES | MIC Staph. aureus [1] [µg/mL] | Proliferation-inhibiting index (%) After adding S-9 mix [2] | Logarithmic value of the number of bacterial cells per one g of feces, Ps. aeruginosa [3] | Logarithmic value of the number of bacterial cells per one g of feces, L. bifidus [4] | Logarithmic value of the number of bacterial cells per one g of feces, L. acidophilus [5] | Logarithmic value of the number of bacterial cells per one g of feces, E. coli [6] | Logarithmic value of the number of bacterial cells per one g of feces, Strept. spp. [7] | Logarithmic value of the number of bacterial cells per one g of feces, Bacteroides [8] | MIC E. coli [9] [µg/mL] | LD50 [10] |
| --- | --- | --- | --- | --- | --- | --- | --- | --- | --- | --- |
| COC(=O)c1ccccc1NC(=O)C1=C(COC(C)=O)CSC2C(NC(=O)Cc3cccs3)C(=O)N12 (stereo not shown) [Example 10, N-(2-carbomethoxyphenyl)-7-(thienyl-2-acetamido)cephalosporanic acid amide] | ≥ 12.5 | + (1-33) | < 3.0 | 8.2 | 9.0 | 6.5 | 6.4 | 8.0 | ≥ 100 |  |
| CC(=O)OCC1=C(C(=O)O)N2C(=O)[C@@H](NC(=O)Cc3cccs3)[C@H]2SC1 [cephalotin sodium] |  |  |  |  |  |  |  |  |  | about 5 g/kg |
